Assays:
[1] = test system: Guinea Pig Tracheal Muscle; test: Test with Guinea Pig Tracheal Muscle: relaxation of spontaneous tension; assay type: cell-based, male Hartley guinea pig; settings: Cavia porcellus; concentration exhibiting 50% relaxing activity, relaxing activity of 1 mM aminophylline taken as 100%, 37° C.
Method: Test with Guinea Pig Tracheal Muscle
The trachea was excised from a male Hartley guinea pig (450 to 550 g) to make chain preparations. The preparation was suspended in a bath containing the same Krebs-Henseleit solution as used in Test Example 1 (37° C.) through which a mixed gas of 95% O2 and 5% CO2 was bubbled. Isometric contractions of the preparation were recorded under a tension of 1 g.
The same test compounds as used in Test Example 1 were used.

[2] = test system: histamine-induced increase in respiratory tract inner pressure; test: Study on Antiasthmatic Activity: inhibition of histamine-induced increase in respiratory tract inner pressure; assay type: in vivo, male Hartley guinea pig; settings: Cavia porcellus; dose for 50% inhibition of histamine-induced increase in respiratory tract inner pressure; intraduodenal, anesthetized guinea pig
Method: Study on Antiasthmatic Activity
A mid-line incision was made in the neck of a male Hartley guinea pig (600 to 800 g, CRJ) under anesthesia with pentobarbitar (40 mg/kg, i.p.). The trachea, the left […], and the left carotid artery were exposed, and a cannula was inserted into each of them. The inner pressure of the respiratory tract was measured while applying artificial respiration through the tracheal cannula. The blood pressure was measured through the arterial cannula, and the heart rate was determined from the pulse. Pentobarbital for anesthesia maintenance was continuously administered through the venous cannula. A mid-line incision was made on the abdomen to expose the duodenum, and a cannula for intraduodenal administration was inserted thereinto. After the postoperative convalescence of 30 to 60 minutes, histamine (5 to 10 μg/kg) was intravenously administered every 10 minutes. After it was confirmed that a respiratory tract inner pressure rise reaction was stably obtained, a test compound in the form of a 0.3% CMC suspension was intraduodenally administered. The histamine dose was so selected that the respiratory tract inner pressure might rise to 20 to 40 cmH2 O after every lntravenous administration. After administration of the test compound, intravenous administration of histamine at 10 minutes intervals was continued. The histamine-induced increase in respiratory tract inner pressure after the administration of the test compound was compared with that before the administration.

[3] = test system: Excised Aorta of Rat; test: Test with Excised Aorta of Rat: relaxation of lasting contraction following KCl (30 mM) addition; assay type: cell-based, male Sprague Dawley rat; settings: rat thoracic aorta rings, 30 mM KCl contraction, 37° C.
Method: Test with Excised Aorta of Rat
The thoracic aorta was excised from a male Sprague Dawley rat (450 to 600 g) and cut into 2 mm wide ring preparations. Each preparation was suspended in 10 ml of an organ bath containing a Krebs-Henseleit solution (NaCl:119; KCl:4.8; CaCl2 ·2H2 O: 2.53; KH2 PO4 :1.2; MgSO4 ·7H2 O: 1.2; NaHCO3 : 24.8; glucose: 10 (mM); 37° C.) under a tension of 2 g, and a mixed gas of 95% O2 and 5% CO2 was bubbled therethrough. Isometric contractions of the preparation were recorded by means of an FD pick-up. […] The activity of a test compound to relax a lasting contraction following the KCl addition was evaluated by obtaining a 50% inhibitory concentration (IC50).
The compounds of the present invention obtained in the foregoing Examples and, for comparison, Cromakalim were used as test compounds.

| SMILES | IC50 [1] [nM] | IC50 [3] [nM] | ED50 [2] [mg/kg] |
| --- | --- | --- | --- |
| CC1(C)Oc2ccc(C#N)cc2[C@@H](N2CCCC2=O)[C@@H]1O (relative stereo) [Cromakalim, reference compound] | 790 | 180 | 1 to 3 |
| CNC(=S)C1=CC(C)(C)Oc2ccc(C#N)cc21 [Compound 3, N-Methyl-6-cyano-2,2-dimethyl-2H-1-benzopyran-4-carbothioamide] | 200 | 33 |  |
| CN(C)C(=NC#N)C1=CC(C)(C)Oc2ccc([N+](=O)[O-])cc21 [Compound 11, N^2 -Cyano-N^1,N^1-dimethyl-6-nitro-2,2-dimethyl-2H-1-benzopyran-4-carboxamidine] | 54 | > 30000 | 0.1 |
| CNC(=O)C1CC(C)(C)Oc2ccc([N+](=O)[O-])cc21 (stereo not shown) [Compound 22, N-Methyl-3,4-dihydro-6-nitro-2,2-dimethyl-2H-1-benzopyran-4-carboxamide] | 36 | 14 | < 0.3 |
| CNC(=S)C1=CC2(CCCCC2)Oc2ccc([N+](=O)[O-])cc21 [Compound 91] | 38 | 0.14 |  |
| CNC(=S)C1=CC(C)(C)Oc2ccc(C(F)(F)F)cc21 [Compound 104] | 37 | 2.6 |  |
| CNC(=S)C1=CC2(CCCC2)Oc2ccc([N+](=O)[O-])cc21 [Compound 128] | 50 | 0.037 |  |
| CNC(=S)C1=CC(C)(C)Oc2ccc(Br)cc21 [Compound 134] | 75 | 9.3 |  |

Further lines, with some results ahead:

| IC50 [1] [nM] | IC50 [3] [nM] | SMILES | ED50 [2] [mg/kg] |
| --- | --- | --- | --- |
| 6.3 | 1.4 | CNC(=S)C1=CC(C)(C)Oc2ccc([N+](=O)[O-])cc21 [Compound 8, N,2,2-Trimethyl-6-nitro-2H-1-benzopyran-4-carbothioamide] | 0.1 to 0.3 |
| 33 | 11 | CNC(=O)C1=CC(C)(C)Oc2ccc([N+](=O)[O-])cc21 [Compound 10, N-Methyl-6-nitro-2,2-dimethyl-2H-1-benzopyran-4-carboxamide] | < 0.1 |
| 23 | 11 | CN=C(NC#N)C1=CC(C)(C)Oc2ccc([N+](=O)[O-])cc21 [Compound 12, N-Cyano-N'-methyl-6-nitro-2,2-dimethyl-2H-1-benzopyran-4-carboxamidine] | 0.1 to 0.3 |
| 2.9 | 0.18 | CCC1(C)C=C(C(=S)NC)c2cc([N+](=O)[O-])ccc2O1 (stereo not shown) [Compound 90] |  |
| 11 | 3.7 | CCNC(=S)C1=CC(C)(C)Oc2ccc([N+](=O)[O-])cc21 [Compound 113] |  |
| 41 | 3 | CCCNC(=S)C1=CC(C)(C)Oc2ccc([N+](=O)[O-])cc21 [Compound 115] |  |
| 22 | 3.7 | CC1(C)C=C(C(=S)NC2CC2)c2cc([N+](=O)[O-])ccc2O1 [Compound 137] |  |
| 56 | 5.7 | CCCNC(=O)C1=CC(C)(C)Oc2ccc([N+](=O)[O-])cc21 [Compound 146] |  |
| 16 | 2.1 | CCC1(C)C=C(C(=O)NC)c2cc([N+](=O)[O-])ccc2O1 (stereo not shown) [Compound 181] | 0.1 to 0.3 |
| 11 | 0.042 | CNC(=O)C1=CC2(CCCCC2)Oc2ccc([N+](=O)[O-])cc21 [Compound 186] |  |
| 57 | 6000 | CCN(CC)C(=O)C1=CC(C)(C)Oc2ccc([N+](=O)[O-])cc21 [Compound 193] | < 0.3 |

From patent publication US5412117A, “Benzopyran derivatives” (Chugai Seiyaku Kabushiki Kaisha, priority 1990, dated 1995)
